Measured values taken from publication PMC11892739, “Site-specific molecular glues for the 14-3-3/Tau pS214 protein–protein interaction via reversible covalent imine tethering” (RSC Medicinal Chemistry, 2025).

Assays:
14-3-3ζ/Raptor peptide = target: T1, 14-3-3ζ/Raptor peptide (Homo sapiens, UniProt P63104); assay: FA peptide screen, 14-3-3ζ titration to client peptide and compound: Raptor; type: binding; settings: 250 μM compound, 100 nM peptide; +1 Tyr
T1 construct: made in house; host or cells: NiCo21 (DE3) E. coli
Experimental: Since the hub protein 14-3-3 binds to hundreds of phosphoprotein partners, selectivity of PPI stabilization is a major challenge. The interplay of chemical reactivity, and the topology and functionality of the composite binding pocket shaped by 14-3-3 and Tau potentially provide entries towards selective stabilization. […] Here, 14-3-3ζ was titrated to a constant concentration of client peptide (100 nM) and compound (250 μM) to determine the SF250μM values for the particular 14-3-3 PPI. A variety of 14-3-3 binding proteins was represented in this client panel whereby the size and hydrophobicity of the +1 amino acid were varied. […]
chromatography (HisTrap high performance cartridges, Cytiva). Typically two 5 mL columns were used for a 2 L culture in which the lysate was loaded on the column, washed with 10 CV wash buffer (50 mM Hepes, pH 8.0, 300 mM NaCl, 25 mM imidazole, 2 mM βME), and eluted with several fractions (2-4 CV) of elution buffer (50 mM Hepes, pH 8.0, 300 mM NaCl, 250 mM imidazole, 2 mM βME). […] Dialyzed protein was concentrated to ∼40 mg/mL, analyzed by Q -Tof LC/MS, and aliquots were flash -frozen for storage at −80 °C. […] Fractions containing the 14 -3-3 protein were pooled and concentrated to ∼60 mg/mL, analyzed Q -Tof LC/MS, and aliquots were flash -frozen for storage at −80°C.
Fluorescence Anisotropy – compound titration […]

[1] = tested on: 14-3-3ζ/Tau pS2 peptide interaction; assay: Fluorescence anisotropy 14-3-3ζ titration in the presence of 250 μM compound and Tau pS2 peptide; type: binding; settings: 250 μM compound; 100 nM client peptides, 10 nM Tau pS2 peptide
Experimental: On the other hand, the PPI stabilizing potency of series 1 compounds was highly dependent on the position and chemical property of the substituent. […] The compound screen for these compounds was further complemented by 14-3-3ζ titration assays in the presence of a constant concentration of compound (250 μM) and Tau pS2 peptide (10 nM) (Fig. 3c, ESI ^† Fig. S6).
This statement is strengthened by the diminished stabilizing activity when shifting the more polar chloro substituent from the para (14) to the ortho (5) to the meta position (8), respectively. […]
chromatography (HisTrap high performance cartridges, Cytiva). Typically two 5 mL columns were used for a 2 L culture in which the lysate was loaded on the column, washed with 10 CV wash buffer (50 mM Hepes, pH 8.0, 300 mM NaCl, 25 mM imidazole, 2 mM βME), and eluted with several fractions (2-4 CV) of elution buffer (50 mM Hepes, pH 8.0, 300 mM NaCl, 250 mM imidazole, 2 mM βME). Fractions containing the 14-3-3 protein were combined and dialyzed into 25 mM HEPES pH 8.0, 200 mM NaCl, 10 mM MgCl2, 2 mM βME, followed by dialysis into 25 mM HEPES, 100 mM NaCl, 10 mM MgCl2, 500 μM TCEP (adjusted to pH 8.0). Dialyzed protein was concentrated to ∼40 mg/mL, analyzed by Q -Tof LC/MS, and aliquots were flash -frozen for storage at −80 °C. For 14 -3-3σ∆c, 1 mg TEV per 100 mg purified protein was added to the dialysis to remove the purification tag. The cleaved sample was then again loaded on a 10 mL Ni-NTA column to separate the cleaved product from the expression tag and residual uncleaved protein. The flowthrough was loade d on a Superdex 75 pg 16/60 size exclusion column (GE Life Sciences) using 25 mM HEPES, 100 mM NaCl, 10 mM MgCl2, 500 μM TCEP (adjusted to pH = 8.0) as running buffer. Fractions containing the 14 -3-3 protein were pooled and concentrated to ∼60 mg/mL, analyzed Q -Tof LC/MS, and aliquots were flash -frozen for storage at −80°C.
Fluorescence Anisotropy – compound titration
Compound titration assays were performed by titrating compounds (in 1% DMSO, starting at 500 μM) in a 2-fold dilution series to preformed complex of fluorescein -labeled Tau pS2 (10 nM) and 14 -3-3ζ (100 nM) (which represents approximately 20% bound Tau pS2 peptide to 14 -3-3ζ to allow further complex formation by addition of fragments 1) in FA buffer (10 mM HEPES pH 7.4, 150 mM NaCl, 50 µM TCEP, 0.1% (v/v) Tween20, 0.1% (w/v) BSA). Dilution series were made in polystyrene low -volume 384 -well plates (Corning #4514, Black Round Bottom). Measurements were performed directly after plate preparation, using a Tecan SPARK plate reader at room temperature ( λex: 485±20 nm; λem: 535±25 nm; mirror: automatic; flashes: 30; settle time: 1 ms; gain: optimal; Z -position: calculated from well). Wells containing only fluorescein labelled peptide were used to set as G -factor calibrated from these wells. All data were analyzed using GraphPad Prism (10.0.1) and fitted with a four -parameter logistic model (4PL) to determine binding affinities (dissociation constant, KD). All data shown is background corrected for the signal without 14 -3-3ζ and the mean and standard deviation of technical duplicate is plotted, assay performed in a scientific duplicate for hit compounds.
Fluorescence Anisotropy – 14-3-3 titrations in the presence of compound To characterize the affinity of the Tau peptides for 14-3-3 in the presence of compound, 14-3-3ζ or γ was titrated in a 2-fold dilution series starting at 400 (for the 14-3-3ζ titrations to Tau pS2) or 800 (for the 14-3-3γ titrations to Tau pS214 or pS324) µM. 14-3-3 was added to 10 nM of fluorescein-labeled peptide (Tau pS2, Tau pS214 or Tau pS324) in the presence of 250 µM compound (1% DMSO). The assays were performed in a similar way as described above. Data shown is the average and standard deviation of a technical duplicate, top plateau corrected where needed, assay performed in a scientific duplicate.
Fluorescence Anisotropy – peptide screen […]

T1 sequence (P63104 whole entry, other chains not shown): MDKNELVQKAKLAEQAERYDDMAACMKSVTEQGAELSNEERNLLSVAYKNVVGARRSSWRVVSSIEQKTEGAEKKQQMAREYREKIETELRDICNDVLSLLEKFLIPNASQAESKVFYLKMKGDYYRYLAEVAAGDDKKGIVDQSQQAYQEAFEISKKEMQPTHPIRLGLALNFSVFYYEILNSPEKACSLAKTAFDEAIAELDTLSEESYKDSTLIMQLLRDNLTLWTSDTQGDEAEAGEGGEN

- stabilization of 14-3-3/Raptor peptide (in words) (14-3-3ζ/Raptor peptide): no significant stabilization
Structure (SMILES): CCc1ccc(-c2nccn2-c2ccc(C=O)c(Br)c2)cc1 [Compound 18]
- selectivity against panel of 13 14-3-3 client peptides (in words) [1]: selective for the 14-3-3ζ/Tau pS2 peptide complex
